Test results published in paper PMC7216583 (Parasites & Vectors, 2020).
Counter-ions that a name gives are not always drawn.

system: Toxoplasma gondii RH-2F tachyzoites; assay: microbe, parasite or virus in culture; settings: 72 h, read-out: Parasite inhibition (%) mean

Row | SMILES | inhibition of growth at 5 µM [%]
1 | Cc1cc2c(F)c(Oc3ncnn4cc(OC[C@@H](C)O)c(C)c34)ccc2[nH]1 [Brivanib (BMS-540215)] | 49.8

same assay, conditions: 72 h, read-out: Parasite inhibition (%) mean, preliminary screen of compound library, mean

Row | SMILES | inhibition of growth at 5 µM [%]
2 | CN(C)[C@@H](CCOc1cccc2ccccc12)c1ccccc1 [Dapoxetine hydrochloride (Priligy)] | -0.2
3 | COc1ccc([C@@H]2Sc3ccccc3N(CCN(C)C)C(=O)[C@@H]2OC(C)=O)cc1 [Diltiazem HCl (Tiazac)] | -15.8
4 | Cc1c(Cn2c(C)nc3c(C(=O)O)cc(N4CCOCC4)cc32)cccc1C(F)(F)F [GSK2636771] | 1.7
5 | N#CCNC(=O)c1ccc(-c2ccnc(Nc3ccc(N4CCOCC4)cc3)n2)cc1 [Cyt387] | 28.9
6 | CN(Cc1ccc(C(C)(C)C)cc1)Cc1cccc2ccccc12 [Butenafine HCl] | 7.5
7 | COC(=O)CCSCc1ccc(-c2onc(C)c2NC(=O)OC(C)c2ccccc2Cl)cc1 (centres unmarked) [Ki16198] | 1.4
8 | O=C(O)C(O)Cc1ccc(O)c(O)c1 (centres unmarked) [Sodium Danshensu] | 2.2
9 | O=C(O)[C@]1(Cc2cccc(Nc3nccs3)n2)CC[C@@H](Oc2cccc(Cl)c2F)CC1 [MK-5108 (VX-689)] | 60.4
10 | C[C@H]1CCO[C@H]2Cn3cc(C(=O)NCc4ccc(F)cc4F)c(=O)c(O)c3C(=O)N21 [S/GSK1349572 (GSK1349572)] | 0.2
11 | CC(C)c1nc(CN(C)C(=O)N[C@@H](CCN2CCOCC2)C(=O)N[C@H](CC[C@H](Cc2ccccc2)NC(=O)OCc2cncs2)Cc2ccccc2)cs1 [Cobicistat (GS-9350)] | 0.8
12 | COC(=O)C1=C(C)NC(C)=C(C(=O)OCCN2CCN(C(c3ccccc3)c3ccccc3)CC2)C1c1cccc([N+](=O)[O-])c1 (centres unmarked) [Manidipine (Manyper)] | 1.1
13 | CO/N=C(\C(=O)N[C@@H]1C(=O)N2C(C(=O)O)=C(Cn3ccc(=N)n3CCO)CS[C@H]12)c1csc(N)n1 [Cefoselis sulfate] | 12.1
14 | CNC(=O)c1cc(Oc2ccc(NC(=O)Nc3cc(C(C)(C)C)nn3-c3ccc4ncccc4c3)c(F)c2)ccn1 [DCC-2036 (Rebastinib)] | 25.5
15 | Cn1c(CNc2ccc(C(=N)N)cc2)nc2cc(C(=O)N(CCC(=O)O)c3ccccn3)ccc21 [BIBR 953 (Dabigatran etexilate, Pradaxa)] | 0.3
16 | C=C1/C(=C/C=C2\CCC[C@@]3(C)[C@H]2CC[C@H]3[C@H](C)/C=C/[C@@H](C)C(C)C)C[C@H](O)C[C@@H]1O [Doxercalciferol (Hectorol)] | 0.1
17 | N=C(N)c1ccc(OCCCCCOc2ccc(C(=N)N)cc2)cc1 [Pentamidine HCl] | 23.6
18 | CC[C@@H]1/C=C(\C)C[C@H](C)C[C@H](OC)[C@H]2O[C@@](O)(C(=O)C(=O)N3CCCC[C@H]3C(=O)O[C@H](/C(C)=C/[C@@H]3CC[C@H](Cl)[C@H](OC)C3)[C@H](C)[C@@H](O)CC1=O)[C@H](C)C[C@@H]2OC [Pimecrolimus] | -12.9
19 | CN(C)[C@@H]1C(O)=C(C(N)=O)C(=O)[C@@]2(O)C(=O)C3=C(O)c4c(O)cccc4[C@@](C)(O)[C@H]3[C@H](O)[C@@H]12 [Oxytetracycline (Terramycin)] | 33.5
20 | CCC(=O)N1CCN(c2ccc(-n3c(=O)ccc4cnc5ccc(-c6cnc7ccccc7c6)cc5c43)cc2C(F)(F)F)CC1 [Torin 1] | 17.8
21 | COC(=O)C1=CCCN(C)C1 [Arecoline] | -9.5
22 | N[C@@H](CSCCCO)C(=O)O [Fudosteine] | 11
23 | CNCC(=O)c1ccc(O)c(O)c1 [Adrenalone HCl] | 17.8

Row | SMILES | inhibition of growth at 5 µM [%]
24 | CCCC(=O)[O-].[Na+] [Sodium butyrate] | 23.1
25 | CO[C@H]1C(=O)[C@@]2(C)[C@H]([C@@H](OC(=O)c3ccccc3)[C@@]3(O)C[C@H](OC(=O)[C@H](O)[C@@H](NC(=O)OC(C)(C)C)c4ccccc4)C(C)=C1C3(C)C)[C@]1(OC(C)=O)CO[C@@H]1C[C@H]2OC [Cabazitaxel (Jevtana)] | 2.3
26 | CC(C)c1nc(N(C)S(C)(=O)=O)nc(-c2ccc(F)cc2)c1/C=C/[C@@H](O)C[C@@H](O)CC(=O)O [Rosuvastatin calcium (Crestor)] | -0.1
27 | CN1CCN2c3ncccc3Cc3ccccc3C2C1 (centres unmarked) [Mirtazapine (Remeron, Avanza)] | 33.1
28 | COc1cc2ncnc(-n3nc(-c4ccccn4)nc3N)c2cc1OC [CP-466722] | 2.5
29 | Cc1cn([C@@H]2C[C@@H](O)[C@H](CO)O2)c(=O)[nH]c1=O [Telbivudine (Sebivo, Tyzeka)] | 12.9
30 | CC(S)C(=O)NCC(=O)O (centres unmarked) [Tiopronin (Thiola)] | 0.9
31 | CC[C@H](Nc1ncnc2[nH]cnc12)c1nc2cccc(F)c2c(=O)n1-c1ccccc1 [CAL-101 (GS-1101)] | 47.8
32 | Cc1cc(C#N)cc(C)c1Oc1nc(Nc2ccc(C#N)cc2)nc(N)c1Br [Etravirine (TMC125)] | 0
33 | C=CC(=O)Nc1ccc2ncnc(Nc3cccc(Br)c3)c2c1 [PD168393] | -0.1
34 | N[C@@H](Cc1ccc(O)c(O)c1)C(=O)O [Levodopa (Sinemet)] | 12.1
35 | O=C(Nc1ccc(S(=O)(=O)Nc2ccccc2Cl)c(Cl)c1)c1ccccn1 [VU 0364439] | -0.9
36 | O=C(O)Cc1ccccc1Nc1c(Cl)cccc1Cl [Diclofenac Diethylamine] | -21.2
37 | CC1(C)S[C@@H]2[C@H](NC(=O)[C@H](N)c3ccc(O)cc3)C(=O)N2[C@@H]1C(=O)O [Amoxicillin sodium (Amox)] | 9.1
38 | O=C(O)CCCCC(CCSCc1ccccc1)SCc1ccccc1 (centres unmarked) [CPI-613] | 31.1
39 | COc1ccc(CCC(=O)Nc2nc3ccc(Cl)cc3s2)cc1OC [KY02111] | -12.8
40 | O=C(O)c1ccc2c(c1)nc(Nc1cccc(Cl)c1)c1ccncc12 [CX-4945 (Silmitasertib)] | 1.5
41 | NC(Cc1c[nH]c2ccc(O)cc12)C(=O)O (centres unmarked) [5-hydroxytryptophan (5-HTP)] | 0
42 | C[C@@]12C[C@@]3(O)O[C@@H](O1)[C@]1(COC(=O)c4ccccc4)[C@H]3C[C@@]12O[C@@H]1O[C@H](CO)[C@@H](O)[C@H](O)[C@H]1O [Paeoniflorin] | 0.7
43 | COc1ccc(Cl)cc1C(=O)NCCc1ccc(S(=O)(=O)NC(=O)NC2CCCCC2)cc1 [Glyburide (Diabeta)] | 1.9
44 | O=S(=O)(c1ccccc1)c1cnc2c(N3CCNCC3)cccc2c1 [SB-742457] | 0.6
45 | Cc1nc2c([nH]1)-c1ccccc1N(C(=O)c1ccc(NC(=O)c3ccccc3-c3ccccc3)cc1)CC2 [Conivaptan HCl (Vaprisol)] | 6.6

same assay, conditions: 72 h, read-out: Parasite inhibition (%) mean, preliminary screen, mean

Row | SMILES | inhibition of growth at 5 µM [%]
46 | CC[C@@H]1C(=O)N(C)c2cnc(Nc3ccc(C(=O)NC4CCN(C)CC4)cc3OC)nc2N1C1CCCC1 [BI 2536] | 0.7
47 | N#C[C@@H]1C[C@@H]2C[C@H]2N1C(=O)[C@@H](N)C12CC3CC(CC(O)(C3)C1)C2 [Saxagliptin (BMS-477118,Onglyza)] | 9.7
48 | Nc1ncnc2c1c(-c1cccc(OCc3ccccc3)c1)cn2C1CC(CN2CCCC2)C1 (stereo in doubt) [NVP-ADW742] | 48.9
49 | CNC(=O)c1ccc(N2C(=S)N(c3ccc(C#N)c(C(F)(F)F)c3)C(=O)C2(C)C)cc1F [MDV3100 (Enzalutamide)] | 35.7
50 | CC[C@H](CO)Nc1nc(NCc2ccccc2)c2ncn(C(C)C)c2n1 [Roscovitine (Seliciclib, CYC202)] | 12.2
51 | CCOC(=O)[C@H](CCc1ccccc1)N[C@H]1CS[C@H](c2cccs2)CN(CC(=O)O)C1=O [Temocapril HCl] | 31.7
52 | O[C@H](CNC[C@@H](O)[C@H]1CCc2cc(F)ccc2O1)[C@@H]1CCc2cc(F)ccc2O1 [Nebivolol (Bystolic)] | 68.9
53 | C[C@]12CCC3=C4CCC(=O)C=C4CC[C@H]3[C@@H]1CC[C@@]2(O)CC#N [Dienogest] | 12
54 | CCOC(=O)[C@H](CCc1ccccc1)N[C@@H](C)C(=O)N1Cc2cc(OC)c(OC)cc2C[C@H]1C(=O)O [Moexipril HCl] | 35.3
55 | CNC(=O)c1cc(Oc2ccc(NC(=O)Nc3ccc(Cl)c(C(F)(F)F)c3)cc2)ccn1 [Sorafenib (Nexavar)] | 55.5
56 | CN(C)CCN1C(=O)c2cccc3cc(N)cc(c23)C1=O [Amonafide] | -3.3
57 | Cc1ccc(-n2nc(C(C)(C)C)cc2NC(=O)Nc2ccc(OCCN3CCOCC3)c3ccccc23)cc1 [BIRB 796 (Doramapimod)] | 8.9
58 | COc1ccc2cccc(CCNC(C)=O)c2c1 [Agomelatine] | 64.2
59 | CN(NC(=O)CC(=O)NN(C)C(=S)c1ccccc1)C(=S)c1ccccc1 [Elesclomol] | 0.9
60 | C=CCn1c(=O)c2cnc(Nc3ccc(N4CCN(C)CC4)cc3)nc2n1-c1cccc(C(C)(C)O)n1 [MK-1775] | 0
61 | CC(C)c1noc(N2CCC(COc3ccc(-c4ccc(S(C)(=O)=O)cc4)nc3)CC2)n1 [GSK1292263] | 0.7
62 | CCN(CCO)CCCOc1ccc2c(Nc3cc(CC(=O)Nc4cccc(F)c4)n[nH]3)ncnc2c1 [Barasertib (AZD1152-HQPA)] | 54.4
63 | COc1cc(Nc2ncc3c(n2)-c2ccc(Cl)cc2C(c2c(F)cccc2OC)=NC3)ccc1C(=O)O [MLN8237 (Alisertib)] | 58.9
64 | C[C@H](Cn1cnc2c(N)ncnc21)OCP(=O)(O)O [Tenofovir (Viread)] | 0
65 | O=C(O)Cn1nnc(-c2cc(N3CCC(Oc4cc(F)ccc4Br)CC3)no2)n1 [MK-8245] | 14.5
66 | C[C@@H](NCCCc1cccc(C(F)(F)F)c1)c1cccc2ccccc12 [AMG-073 HCl (Cinacalcet HCl)] | -0.4
67 | COc1ccccc1S(=O)(=O)Nc1ccc2c(c1)CN(C)C(=O)N2 [PFI-1] | 2.2
68 | CN(C)CCc1c[nH]c2ccc(CS(=O)(=O)N3CCCC3)cc12 [Almotriptan malate (Axert)] | 2
